Measurements: patent US8901118B2, “Compounds and methods for kinase modulation, and indications therefor” (Plexxikon Inc., priority 2010, dated 2014)

What was measured:
[1] = biological target: c-Kit kinase (Homo sapiens, UniProt P10721); assay: c-Kit kinase biochemical activity assay (AlphaScreen, biotin-(E4Y)10 phosphorylation); details: 100 μM ATP; read-out: Biochemical Inhibition IC50 Kit
Protocol: Assays for biochemical and cell based activity are known in the art, for example, U.S. Patent Application Publication Number 2009/0076046, the disclosure of which is hereby incorporated by reference as it relates to such assays. For example, in one assay the biochemical activity IC50 values are determined with respect to inhibition of c-Kit kinase activity, where inhibition of phosphorylation of a peptide substrate is measured as a function of compound concentration. Compounds to be tested are dissolved in DMSO to a concentration of 20 mM. These are diluted 30 μL into 120 μL of DMSO (4 mM) and 1 μL is added to an assay plate. These are then serially diluted […] (50 μL to 100 μL DMSO) for a total of 8 points. Plates are prepared such that each kinase reaction is 20 μL in 1× kinase buffer (25 mM HEPES, pH 7.5, 2 mM MgCl2, 2 mM MnCl2, 0.01% Tween-20, 1 mM DTT, 0.01% BSA), 5% DMSO and 100 μM ATP. Substrate is 30 nM biotin-(E4Y) 10 (Millipore). C-kit kinase (obtained from Millipore (#14-559) or is prepared as described in U.S. Patent Application Publication Number 2009/0076046, the disclosure of which is hereby incorporated by reference as it relates to this assay) is at 0.75 ng per sample. After incubation of the kinase reaction for 1 hour at room temperature, 5 μL of donor beads (Streptavidin coated beads (Perkin Elmer Life Science) final concentration 10 μg/mL) in stop buffer (25 mM Hepes pH 7.5, 100 mM EDTA, 0.01% BSA) is added, the sample is mixed and incubated for 20 minutes at room temperature before adding 5 μL of acceptor beads (PY20 coated beads (Perkin Elmer Life Science) final concentration 10 μg/mL) in stop buffer. The samples are incubated for 60 minutes at room temperature and the signal per well is read on Envision reader. Phosphorylated substrate results in binding of the PY20 antibody and association of the donor and acceptor beads such that signal correlates with kinase activity. The signal vs. compound concentration is used to determine the IC50.

[2] = biological target: TrkA kinase (Homo sapiens, UniProt P04629); assay: TrkA kinase biochemical activity assay (AlphaScreen); details: 100 μM ATP; read-out: Biochemical Inhibition IC50 TrkA
Chain of TrkA kinase (P04629 33-796): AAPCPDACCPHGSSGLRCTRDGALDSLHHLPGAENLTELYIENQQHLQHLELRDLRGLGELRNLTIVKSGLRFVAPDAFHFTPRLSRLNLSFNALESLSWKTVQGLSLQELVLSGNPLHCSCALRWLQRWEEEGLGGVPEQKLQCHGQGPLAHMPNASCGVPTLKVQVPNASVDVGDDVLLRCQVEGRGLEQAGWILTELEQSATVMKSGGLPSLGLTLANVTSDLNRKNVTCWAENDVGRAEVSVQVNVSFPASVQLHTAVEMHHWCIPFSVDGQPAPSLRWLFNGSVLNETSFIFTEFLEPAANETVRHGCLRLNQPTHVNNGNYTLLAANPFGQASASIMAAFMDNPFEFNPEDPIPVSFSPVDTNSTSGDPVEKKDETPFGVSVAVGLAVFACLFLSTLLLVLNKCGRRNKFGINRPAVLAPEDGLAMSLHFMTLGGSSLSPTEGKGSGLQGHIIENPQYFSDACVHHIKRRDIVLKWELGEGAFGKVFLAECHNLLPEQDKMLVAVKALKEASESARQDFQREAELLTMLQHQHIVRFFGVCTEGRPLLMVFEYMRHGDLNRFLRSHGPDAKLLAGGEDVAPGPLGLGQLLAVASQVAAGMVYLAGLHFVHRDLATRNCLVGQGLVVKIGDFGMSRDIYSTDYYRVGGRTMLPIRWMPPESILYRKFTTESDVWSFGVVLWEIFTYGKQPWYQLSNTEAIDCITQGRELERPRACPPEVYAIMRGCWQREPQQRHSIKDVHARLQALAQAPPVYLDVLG
Protocol: In one assay the biochemical activity IC50 values are determined with respect to inhibition of TrkA kinase activity, where inhibition of phosphorylation of a peptide substrate is measured as a function of compound concentration. Compounds to be tested, dissolved in DMSO (1 μL), are added to a white 384-well plate (Costar #3705). Working stocks of TrkA kinase (UBI), biotin-(E4Y)10 substrate (Upstate Biotech, Cat#12-440), and ATP (Sigma, Cat#A-3377) are prepared in 25 mM Hepes pH 7.5, 10 mM MnCl2, 1 mM DTT, 0.01% BSA, and 0.01% Tween-20. All components are added to the 384-well plate for a final concentration of 1 ng/well TrkA, 30 nM biotin-(E4Y)10 and 100 μM ATP in a volume of 20 μL. Each sample is at 5% DMSO. The plate is shaken for 1 minute at 1200 rpm, spun for 1 minute at 1000 rpm, then incubated for 40 minutes at room temperature. Just before use, working stocks of donor and acceptor beads from the AlphaScreen PY20 Detection Kit (PerkinElmer, Cat#676601M) are prepared in 25 mM Hepes pH 7.5, 100 mM EDTA. 0.01% BSA. Donor Beads solution (Streptavidin beads) is added (5 μL) to each well to final bead concentration of 10 μg/mL. The plate is incubated at room temperature for 20 minutes. Acceptor Beads solution (PY20 coated beads) are then added to each well (5 μL) to a final concentration of bead at 10 μg/mL. The plates are incubated at room temperature for 60 minutes. Fluorescence signal is recorded on the Envision reader. Phosphorylated substrate results in binding of the PY20 antibody and association of the donor and acceptor beads such that signal correlates with kinase activity. The signal vs. compound concentration is used to determine the IC50. Similar assays are used for TrkB and Trk C kinase.

[3] = biological target: CYP2C19 (Homo sapiens, UniProt P33261); assay: CYP2C19 inhibition (fluorescent substrate CEC); type: in vitro ADME; details: read-out: Cyp IC50 2C19
Chain of CYP2C19 (P33261 whole entry): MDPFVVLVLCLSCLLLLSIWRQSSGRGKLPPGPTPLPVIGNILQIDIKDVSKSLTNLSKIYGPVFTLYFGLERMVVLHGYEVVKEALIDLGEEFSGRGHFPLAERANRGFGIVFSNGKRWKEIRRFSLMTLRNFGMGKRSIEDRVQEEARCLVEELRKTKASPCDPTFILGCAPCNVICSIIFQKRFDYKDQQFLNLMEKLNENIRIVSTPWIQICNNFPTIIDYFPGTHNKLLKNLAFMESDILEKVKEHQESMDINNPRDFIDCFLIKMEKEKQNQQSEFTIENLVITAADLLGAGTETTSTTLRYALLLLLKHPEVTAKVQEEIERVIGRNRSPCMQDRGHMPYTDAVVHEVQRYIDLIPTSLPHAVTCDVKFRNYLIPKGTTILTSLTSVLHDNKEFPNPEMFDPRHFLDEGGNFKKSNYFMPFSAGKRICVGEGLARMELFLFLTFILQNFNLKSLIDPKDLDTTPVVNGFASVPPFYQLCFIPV
Protocol: (§1) CYP (Cytochrome P450) enzymes are the major drug metabolizing enzymes present in the liver. The inhibition of CYP enzyme activity (IC50) for each of CYP1A2, CYP2C19, CYP2C9, CYP2D6, CYP3A4(BFC) and CYP3A4(BQ) is determined for compounds, where inhibition of metabolism of a known substrate leads to a decrease in the fluorescence of the metabolized product. The fluorescence of the product is monitored as a function of compound concentration. Compounds are dissolved in DMSO to a concentration of 100 mM. These are diluted 1 μL into 82 μL of acetonitrile. An 11 μL aliquot of this solution is then added to 204 μL of cofactor mix (1.3% NADPH Regeneration system Solution A, 1.04% NADPH Regeneration system Solution B from BD Biosciences, 5% acetonitrile and 0.05% DMSO). These are then serially diluted 1:1 (160 μL to 160 μL co-factor mix) for a total of 10 points. A 10 μL aliquot of this final mixture is dispensed into 384 well assay plates and incubated for 10 minutes at 37° C. […] Assay plates are incubated at 37° C. (CYP1A2-15 min; CYP2C9-45 min; CYP2C19, 2D6 and 3A4-30 min) and read in a Tecan Safire 2 plate reader (CYP1A2, 2C19 and 3A4 409 ex/460 em; CYP2C9 and 2D6 409 ex/530 em). The signal versus compound concentration is used to determine the IC50. The enzymes and substrates for this assay are obtained from BD Biosciences.

[4] = biological target: CYP2D6 (Homo sapiens, UniProt P10635); assay: CYP2D6 inhibition (fluorescent substrate AMMC); type: in vitro ADME; details: read-out: Cyp IC50 2D6
Chain of CYP2D6 (P10635 whole entry): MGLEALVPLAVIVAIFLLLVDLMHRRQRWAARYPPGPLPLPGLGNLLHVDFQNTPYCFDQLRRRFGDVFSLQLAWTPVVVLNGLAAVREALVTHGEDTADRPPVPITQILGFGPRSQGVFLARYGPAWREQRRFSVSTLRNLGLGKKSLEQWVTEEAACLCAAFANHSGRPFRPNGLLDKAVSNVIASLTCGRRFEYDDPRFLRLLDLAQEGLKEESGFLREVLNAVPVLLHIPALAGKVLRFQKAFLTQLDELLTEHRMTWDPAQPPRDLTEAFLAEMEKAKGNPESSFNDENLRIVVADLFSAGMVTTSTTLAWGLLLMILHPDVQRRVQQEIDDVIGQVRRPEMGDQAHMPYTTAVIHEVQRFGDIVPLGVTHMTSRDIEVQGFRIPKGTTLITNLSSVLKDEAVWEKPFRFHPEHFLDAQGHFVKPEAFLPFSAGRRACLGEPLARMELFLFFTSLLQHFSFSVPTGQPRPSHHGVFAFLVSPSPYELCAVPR
Protocol: as §1

[5] = biological target: CYP3A4(BQ) (Homo sapiens, UniProt P08684); assay: CYP3A4(BQ) inhibition; type: in vitro ADME; details: CYP3A4, substrate BQ; read-out: Cyp IC50 3A4(BQ)
Chain of CYP3A4(BQ) (P08684 whole entry): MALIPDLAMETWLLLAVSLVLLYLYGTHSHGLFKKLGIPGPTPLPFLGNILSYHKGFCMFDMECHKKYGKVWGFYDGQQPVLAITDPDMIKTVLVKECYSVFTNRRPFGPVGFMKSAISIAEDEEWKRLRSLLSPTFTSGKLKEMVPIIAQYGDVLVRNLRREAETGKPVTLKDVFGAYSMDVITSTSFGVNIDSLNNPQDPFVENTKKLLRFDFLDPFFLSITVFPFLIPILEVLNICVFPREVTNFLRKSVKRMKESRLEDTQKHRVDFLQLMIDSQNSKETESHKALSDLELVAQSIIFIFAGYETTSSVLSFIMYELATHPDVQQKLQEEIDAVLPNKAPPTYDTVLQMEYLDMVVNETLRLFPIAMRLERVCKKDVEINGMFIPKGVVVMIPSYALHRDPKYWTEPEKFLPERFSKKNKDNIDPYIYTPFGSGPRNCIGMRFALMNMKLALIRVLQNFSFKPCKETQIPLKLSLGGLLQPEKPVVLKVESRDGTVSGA
Protocol: as §1

Chain of c-Kit kinase (P10721 26-976): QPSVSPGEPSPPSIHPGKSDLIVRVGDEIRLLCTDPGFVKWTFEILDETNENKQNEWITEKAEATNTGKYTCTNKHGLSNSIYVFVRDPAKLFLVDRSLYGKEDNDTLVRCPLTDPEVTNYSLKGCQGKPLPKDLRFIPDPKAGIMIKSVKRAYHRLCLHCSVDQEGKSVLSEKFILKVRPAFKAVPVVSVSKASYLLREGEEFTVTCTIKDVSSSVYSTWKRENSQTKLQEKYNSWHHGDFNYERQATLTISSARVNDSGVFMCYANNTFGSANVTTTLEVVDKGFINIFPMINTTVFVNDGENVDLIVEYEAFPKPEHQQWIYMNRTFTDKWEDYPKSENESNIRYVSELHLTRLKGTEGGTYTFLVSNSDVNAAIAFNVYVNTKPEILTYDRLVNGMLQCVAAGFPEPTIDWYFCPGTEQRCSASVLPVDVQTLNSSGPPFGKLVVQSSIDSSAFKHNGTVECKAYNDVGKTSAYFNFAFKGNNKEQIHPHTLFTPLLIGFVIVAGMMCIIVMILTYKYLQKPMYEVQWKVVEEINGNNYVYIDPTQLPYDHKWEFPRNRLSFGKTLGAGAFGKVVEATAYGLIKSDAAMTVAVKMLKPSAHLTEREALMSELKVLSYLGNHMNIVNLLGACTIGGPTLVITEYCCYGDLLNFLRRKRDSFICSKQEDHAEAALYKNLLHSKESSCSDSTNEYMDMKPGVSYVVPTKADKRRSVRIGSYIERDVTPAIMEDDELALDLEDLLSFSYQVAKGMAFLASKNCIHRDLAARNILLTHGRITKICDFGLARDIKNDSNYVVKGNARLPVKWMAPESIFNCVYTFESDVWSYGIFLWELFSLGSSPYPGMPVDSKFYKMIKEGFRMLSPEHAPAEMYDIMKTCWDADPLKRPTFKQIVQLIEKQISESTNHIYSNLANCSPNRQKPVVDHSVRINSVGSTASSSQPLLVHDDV

IC50 [1] [µM]	IC50 [2] [µM]	IC50 [3] [µM]	IC50 [4] [µM]	IC50 [5] [µM]	SMILES
< 0.1	< 0.01	5 to 10	> 10	> 5	COc1ccc(Nc2ccc(C(=O)c3c[nH]c4ncnc(NC5CCC5)c34)c(F)n2)cn1 [Compound P-4076, [4-(cyclobutylamino)-7H-pyrrolo[2,3-d]pyrimidin-5-yl]-[2-fluoro-6-[(6-methoxy-3-pyridyl)amino]-3-pyridyl]methanone]
< 1	< 0.01	5 to 10	> 10	> 10	CCC(CC)Nc1ncnc2[nH]cc(C(=O)c3ccc(Nc4ccc(OC)nc4)nc3F)c12 [Compound P-4077, [4-(1-ethylpropylamino)-7H-pyrrolo[2,3-d]pyrimidin-5-yl]-[2-fluoro-6-[(6-methoxy-3-pyridyl)amino]-3-pyridyl]methanone]
< 1	< 0.01	> 10	> 10	> 10	CCC(C)Nc1ncnc2[nH]cc(C(=O)c3ccc(Nc4ccc(OC)nc4)nc3F)c12 (stereo not shown) [Compound P-4078, [2-fluoro-6-[(6-methoxy-3-pyridyl)amino]-3-pyridyl]-[4-(sec-butylamino)-7H-pyrrolo[2,3-d]pyrimidin-5-yl]methanone]
< 0.1	< 0.01	5 to 10	> 10	> 10	COCCCNc1ncnc2[nH]cc(C(=O)c3ccc(Nc4ccc(OC)nc4)nc3F)c12 [Compound P-4079, [2-fluoro-6-[(6-methoxy-3-pyridyl)amino]-3-pyridyl]-[4-(3-methoxypropylamino)-7H-pyrrolo[2,3-d]pyrimidin-5-yl]methanone]
< 1	< 0.01	> 10	> 10	> 10	CCCCNc1ncnc2[nH]cc(C(=O)c3ccc(Nc4ccc(OC)nc4)nc3F)c12 [Compound P-4080, [4-(butylamino)-7H-pyrrolo[2,3-d]pyrimidin-5-yl]-[2-fluoro-6-[(6-methoxy-3-pyridyl)amino]-3-pyridyl]methanone]
< 0.1	< 0.01	> 10	> 10	> 10	CCNc1ncnc2[nH]cc(C(=O)c3ccc(Nc4ccc(OC)nc4)nc3F)c12 [Compound P-4081, [4-(ethylamino)-7H-pyrrolo[2,3-d]pyrimidin-5-yl]-[2-fluoro-6-[(6-methoxy-3-pyridyl)amino]-3-pyridyl]methanone]
< 1	< 0.01	> 10	> 10	5 to 10	COc1ccc(Nc2ccc(C(=O)c3c[nH]c4ncnc(NC5CCCCC5)c34)c(F)n2)cn1 [Compound P-4082, [4-(cyclohexylamino)-7H-pyrrolo[2,3-d]pyrimidin-5-yl]-[2-fluoro-6-[(6-methoxy-3-pyridyl)amino]-3-pyridyl]methanone]
< 0.1	< 0.01	> 10	> 10	> 10	CNc1ncnc2[nH]cc(C(=O)c3ccc(Nc4ccc(OC)nc4)nc3F)c12 [Compound P-4083, [2-fluoro-6-[(6-methoxy-3-pyridyl)amino]-3-pyridyl]-[4-(methylamino)-7H-pyrrolo[2,3-d]pyrimidin-5-yl]methanone]
< 0.1	< 0.01	5 to 10	> 10	> 10	COc1ccc(Nc2ccc(C(=O)c3c[nH]c4ncnc(NCC(F)(F)F)c34)c(F)n2)cn1 [Compound P-4084, [2-fluoro-6-[(6-methoxy-3-pyridyl)amino]-3-pyridyl]-[4-(2,2,2-trifluoroethylamino)-7H-pyrrolo[2,3-d]pyrimidin-5-yl]methanone]
< 0.1	< 0.01	> 10	> 10	> 10	O=C(c1ccc(NC2CCC(F)(F)CC2)nc1)c1c[nH]c2ncnc(NCC(F)(F)F)c12 [Compound P-4087, [6-[(4,4-difluorocyclohexyl)amino]-3-pyridyl]-[4-(2,2,2-trifluoroethylamino)-7H-pyrrolo[2,3-d]pyrimidin-5-yl]methanone]
< 1	< 0.01	> 10	> 10	> 10	O=C(c1ccc(NC2CCC(F)(F)CC2)nc1)c1c[nH]c2ncnc(NC3CC3)c12 [Compound P-4088, [4-(cyclopropylamino)-7H-pyrrolo[2,3-d]pyrimidin-5-yl]-[6-[(4,4-difluorocyclohexyl)amino]-3-pyridyl]methanone]
< 1	< 0.1	> 10	> 10	> 10	CNc1ncnc2[nH]cc(C(=O)c3ccc(NC4CCC(F)(F)CC4)nc3)c12 [Compound P-4089, [6-[(4,4-difluorocyclohexyl)amino]-3-pyridyl]-[4-(methylamino)-7H-pyrrolo[2,3-d]pyrimidin-5-yl]methanone]
< 1	< 0.1	> 10	> 10	> 10	O=C(c1ccc(Nc2ccc(C3CC3)nc2)nc1F)c1c[nH]c2ncnc(NCC(F)(F)F)c12 [Compound P-4090, [6-[(6-cyclopropyl-3-pyridyl)amino]-2-fluoro-3-pyridyl]-[4-(2,2,2-trifluoroethylamino)-7H-pyrrolo[2,3-d]pyrimidin-5-yl]methanone]
< 0.1	< 0.01	> 10	> 10	> 10	O=C(c1ccc(Nc2ccc(C(F)(F)F)nc2)nc1F)c1c[nH]c2ncnc(NC3CC3)c12 [Compound P-4091, [4-(cyclopropylamino)-7H-pyrrolo[2,3-d]pyrimidin-5-yl]-[2-fluoro-6-[[6-(trifluoromethyl)-3-pyridyl]amino]-3-pyridyl]methanone]
